Test results as given in PubChem BioAssay (NCI).
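In this assay, cells in 96-well plates receive the compound at five concentrations for 48 hours. Endpoints are linearly interpolated between the surrounding concentrations. The concentration for 50% growth inhibition is given as GI50. TGI marks complete inhibition of growth.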

Legend:
Assay in all cases: inhibition of tumour cell growth, NCI panel, 48 h
DU-145 prostate = test system: DU-145 prostate
LOX IMVI melanoma = test system: LOX IMVI melanoma
OVCAR-5 ovarian = test system: OVCAR-5 ovarian
SK-OV-3 ovarian = test system: SK-OV-3 ovarian
SNB-19 CNS = test system: SNB-19 CNS
T-47D breast = test system: T-47D breast
CCRF-CEM leukemia = test system: CCRF-CEM leukemia
HS 578T breast = test system: HS 578T breast
NCI-H522 lung = test system: NCI-H522 lung
SR leukemia = test system: SR leukemia

| SMILES | TGI (DU-145 prostate) | TGI (LOX IMVI melanoma) | TGI (OVCAR-5 ovarian) | TGI (SK-OV-3 ovarian) | TGI (SNB-19 CNS) | TGI (T-47D breast) | TGI (CCRF-CEM leukemia) | TGI (HS 578T breast) | TGI (NCI-H522 lung) | TGI (SR leukemia) | GI50 (CCRF-CEM leukemia) | GI50 (DU-145 prostate) | GI50 (OVCAR-5 ovarian) | GI50 (SK-OV-3 ovarian) | GI50 (SR leukemia) |
| --- | --- | --- | --- | --- | --- | --- | --- | --- | --- | --- | --- | --- | --- | --- | --- |
| Cc1ccc(/C=C2/NC(=S)SC2=O)cc1 | > 100 µM | > 100 µM | > 100 µM | > 100 µM | > 100 µM | > 100 µM | – | – | – | – | – | – | – | – | – |
| C/C(=N/NC(=S)N1CCN(C(=S)N/N=C(/C)c2ccccn2)CC1)c1ccccn1 | > 95.5 µM | > 100 µM | > 100 µM | > 100 µM | > 100 µM | 42.5 µM | > 100 µM | > 83.8 µM | 99.2 µM | – | – | – | – | – | – |
| COc1cc(CNC(=S)CCCCCCCCCCC(C)C)ccc1O | > 100 µM | > 100 µM | > 100 µM | > 100 µM | > 100 µM | 97.5 µM | > 100 µM | 83.7 µM | – | > 100 µM | – | – | – | – | – |
| O=[N+]([O-])c1ccc2c(c1)n1c(N3CCCC3)[n+]3ccccc3c1c1c3cccc[n+]3c(N3CCCC3)n21 | > 100 µM | > 100 µM | > 100 µM | – | > 100 µM | > 100 µM | 79.9 µM | > 100 µM | > 100 µM | > 100 µM | – | – | – | – | – |
| CC(C)(CN1CCCCC1)C(/C=C/c1ccccc1)=N\NC(=O)N/N=C(/C=C/c1ccccc1)C(C)(C)CN1CCCCC1 | – | 3.32 µM | 15.4 µM | 9.52 µM | 3.95 µM | – | 3.37 µM | 5.92 µM | 3.35 µM | 2.08 µM | – | – | – | – | – |
| C[C@]12CCC(=O)C=C1CC[C@@H]1[C@@H]2[C@@H](O)C[C@@]2(C)[C@H]1CC[C@]2(O)C(=O)COC(=O)CCC1CCCC1 | – | > 100 µM | > 100 µM | > 100 µM | > 100 µM | – | > 100 µM | – | > 100 µM | > 100 µM | – | – | – | – | – |
| C=C(C)[C@@H]1CC[C@]2(CO)CC[C@]3(C)[C@H](CC[C@@H]4[C@@](C)(CCCN)[C@H](C(=C)C)CC[C@]43C)[C@@H]12 | 3.06 µM | – | 3.04 µM | 3.18 µM | – | – | 4.76 µM | – | – | 2.14 µM | 1.84 µM | 1.68 µM | 1.68 µM | 1.71 µM | 0.475 µM |
| CCOC(=O)CCC(NC(=O)OCc1ccccc1)C(=O)NC(CCC(=O)OCC)C(=O)NC(CCC(=O)OCC)C(=O)NNC(=O)OC(C)(C)C (configuration not stated) | – | – | > 100 µM | – | > 100 µM | – | > 100 µM | > 100 µM | – | > 100 µM | – | – | – | – | – |
| N#C/C(C(=O)Nc1ccccc1)=C(/N)N1CCCCC1 | > 100 µM | > 100 µM | > 100 µM | > 100 µM | > 100 µM | > 100 µM | > 100 µM | – | – | > 100 µM | – | – | – | – | – |
| Cn1ccc2c(c1=O)C(=O)OC2(C)C | > 100 µM | > 100 µM | > 100 µM | > 100 µM | > 100 µM | > 100 µM | > 100 µM | > 100 µM | – | > 100 µM | – | – | – | – | – |
| Cn1c(=O)n(CC2CS2)c2ccccc21 (configuration not stated) | – | > 100 µM | > 100 µM | > 100 µM | > 100 µM | – | > 100 µM | – | > 100 µM | > 100 µM | – | – | – | – | – |
| O=c1nc2ccc3sc4ccccc4c(=O)c3n2c(=O)[nH]1 | > 100 µM | > 100 µM | > 100 µM | – | > 100 µM | – | > 100 µM | > 100 µM | > 100 µM | > 100 µM | – | – | – | – | – |
| COc1cc2oc(-c3ccc4c(c3)OCO4)c(OC)c(=O)c2c(O)c1OC | > 50 µM | > 50 µM | > 50 µM | > 50 µM | > 50 µM | > 50 µM | > 50 µM | > 50 µM | > 50 µM | – | – | – | – | – | – |
| C=C(CCOC)CCC1CCCCC(=C)[C@H]1O (some centres not stated) | > 100 µM | – | > 100 µM | > 100 µM | > 100 µM | > 100 µM | > 100 µM | > 100 µM | > 100 µM | > 100 µM | – | – | – | – | – |
| COc1cc2oc(=O)cc(C)c2c(OC)c1OC(C)=O | > 100 µM | > 100 µM | > 100 µM | > 100 µM | > 100 µM | – | > 100 µM | > 100 µM | – | > 100 µM | – | – | – | – | – |
| COC(=O)c1cc(C)ccc1/C=C1\Cc2c(C)cc(C)cc2C1=O | > 100 µM | > 100 µM | > 100 µM | – | 52.8 µM | > 100 µM | > 100 µM | 42.9 µM | > 100 µM | > 100 µM | – | – | – | – | – |
| COc1cc2oc(=O)cc(C)c2cc1OC | > 100 µM | > 100 µM | > 100 µM | > 100 µM | > 100 µM | – | > 100 µM | > 100 µM | – | > 100 µM | – | – | – | – | – |
| CC(C)(C)C(=O)N1CCN(C=O)C1=S | > 100 µM | > 100 µM | > 100 µM | > 100 µM | > 100 µM | > 100 µM | 97.6 µM | > 100 µM | > 100 µM | – | – | – | – | – | – |
| Cc1ccc(/C=N\NC(=O)c2ccncc2)s1 | > 100 µM | – | > 100 µM | > 100 µM | > 100 µM | > 100 µM | > 100 µM | > 100 µM | > 100 µM | > 100 µM | – | – | – | – | – |
| O=P(O)(O)C=C=C1CCCCC1 | > 100 µM | > 100 µM | > 100 µM | > 100 µM | > 100 µM | > 100 µM | – | > 100 µM | > 100 µM | > 100 µM | – | – | – | – | – |
| COC(=O)/C=c1/c2ccccc2n2c1c1ccccc1[n+]2C | 36.3 µM | 27.9 µM | 17.6 µM | 6.93 µM | > 100 µM | > 100 µM | 51.1 µM | > 100 µM | – | – | – | – | – | – | – |
| CC(=Nc1cc(Cl)cc(Cl)c1)c1ccncc1 | > 100 µM | > 100 µM | > 100 µM | > 100 µM | > 100 µM | > 100 µM | > 100 µM | > 100 µM | > 100 µM | – | – | – | – | – | – |
| Cc1cn(CCOCCOC(=O)NC(CCCNC(N)=O)C(=O)O)c(=O)[nH]c1=O (configuration not stated) | > 100 µM | > 100 µM | > 100 µM | > 100 µM | > 100 µM | > 100 µM | > 100 µM | > 100 µM | – | > 100 µM | – | – | – | – | – |
| CCN(CC)/[N+]([O-])=N/O | – | > 100 µM | > 100 µM | > 100 µM | > 100 µM | – | > 100 µM | – | > 100 µM | > 100 µM | – | – | – | – | – |
| CCn1c(=O)c2c3ccc(OC(C)=O)cc3[nH]c2c2ccc(OC(C)=O)cc21 | 49.1 µM | – | > 100 µM | > 100 µM | > 100 µM | 93.9 µM | > 100 µM | > 100 µM | > 100 µM | > 100 µM | – | – | – | – | – |
